Experimental data reported in patent publication US20190328721A1, “METHOD OF ACTIVATING DENDRITIC CELLS” (KOREA INSTITUTE OF SCIENCE AND TECHNOLOGY, priority 2018, published 2019).

What was measured:
[1] = test system: bone marrow-derived dendritic cells (BMDCs); experiment: Phagocytosis of cancer cells by bone marrow-derived dendritic cells in vitro; format: cell-based, mice; settings: 30 μM, 1 hour; B16F10; co-cultivated 30 min
[2] = test system: bone marrow-derived macrophages (BMDMs); experiment: Phagocytosis of cancer cells by bone marrow-derived macrophages in vitro; format: cell-based, mice; settings: 30 μM, 1 hour; B16F10; co-cultivated 30 min
Description: Specifically, the present inventors prepared bone marrow-derived macrophages (BMDMs) differentiated from excised bone marrow of mice using M-CSF and bone marrow-derived dendritic cells (BMDCs) differentiated from excised bone marrow using Flt3L. The degree of differentiation was confirmed by flow cytometry analysis using antibodies specifically binding to F4/80 (BMDM marker) and CD11c (BMDC marker), respectively (FIGS. 2A and 2B).
The prepared BMDMs and BMDCs were stained with 1 μM CellTracker Deep Red (Thermo Fisher Scientific, USA). 30 μM of Y27632 (Abcam, USA) or 30 μM of fasudil (Selleck Chemicals, USA) was added to each of 15×10^4 cells/ml of the stained macrophages and dendritic cells and incubated at 37° C. for 1 hour. As a negative control, macrophages or dendritic cells that were not incubated with Y27632 and fasudil were used.
Bone marrow-derived macrophages or dendritic cells prepared in RPMI medium and cancer cell lines stained with 1 μM CellTracker CMFDA (Thermo Fisher Scientific, USA) were co-cultured at about 37° C. for about 2 hours. CT26.CL25, a colon cancer cell line, and B16F10-OVA, a melanoma cell line, were used as the cancer cells.
Thereafter, the percentage of cancer cells was measured by flow cytometry, and the phagocytosis ratio of macrophages and dendritic cells against cancer cells was calculated. The results are shown in FIGS. 2C to 2F (left: cancer cell line CT26.CL25, right: cancer cell line B16F10-OVA).
In order to more accurately analyze the phagocytosis of macrophages and dendritic cells against cancer cells according to the treatment of the ROCK inhibitor, the present inventors analyzed phagocytosis of the BMDMs and BMDCs against CT26.CL25 colon cancer cells using the pHrodo-SE dye, which changes in fluorescence depending on pH. When […], the pH of the cancer cells decreased and became red. When treated with Y27632 as described above for the above-mentioned phagocytosis response, the phagocytic activities of both the BMDMs and BMDCs against cancer cells were improved.
The present inventors performed an experiment to confirm how long the phagocytosis of BMDMs and BMDCs against cancer cells due to the ROCK inhibitor is maintained. Specifically, BMDMs and BMDCs were pretreated with Y27632 for 1 hour, then Y27632 was removed, and immediately after 30 minutes, 1 hour, 2 hours, or 4 hours, the phagocytosis against CT26.CL25 and B16F10-Ova was measured using a flow cytometer. The other experimental conditions were the same as in Example 1-1.
In order to confirm whether the ROCK inhibitor increases phagocytosis against cancer cells by acting on phagocytic cells (BMDMs or BMDCs) themselves, Y27632 was used to pretreat the phagocytic cells or cancer cells for 1 hour, and the phagocytic activity was analyzed using the same procedure described in Example 1-1.
The present inventors identified through the above-mentioned results that Y27632 promotes phagocytic cells against cancer cells by inhibiting ROCK in the phagocytic cells. In order to elucidate a more detailed mechanism related to the increase of phagocytic activity by ROCK inhibitors, the present inventors analyzed phagocytosis of the phagocytic cells against cancer cells using blebbistatin (Sigma-Aldrich, USA), which can inhibit the movement of myosin light chain, which exist downstream of ROCK signaling pathway, according to the method described in Example 1-1.
Bone marrow-derived macrophages (BMDMs) treated with 30 μM of fasudil were co-cultured with B16F10-Ova malignant melanoma cells for 1 hour and the phagocytic activity of the BMDMs against apoptotic cancer cells was analyzed by flow cytometry analysis. In order to induce immunogenic apoptosis, 2.5 μM mitoxantrone (Sigma-Aldrich, USA) was administered with B16F10-Ova cells stained with CellTracker Deep Red (Thermo Fisher Scientific, USA) for 4 hours. […]

B16F10 cancer cells = experiment: B16F10 tumor model, ripasudil, PDT and anti-PD-L1 antibodies; design: species or system C57BL/6 wild-type mice; settings: mouse, in vivo

## C[C@H]1CNCCCN1S(=O)(=O)c1cccc2cncc(F)c12 [ripasudil]
[1]
  phagocytic activity of BMDCs against PDT-treated cancer cells: significantly increased
[2]
  phagocytic activity of BMDMs against PDT-treated cancer cells: significantly increased
B16F10 cancer cells
  CD40 and CD86 on dendritic cells of tumor draining lymph nodes: No increased expression
